Reference: publication PMC4883822, “High-Efficiency Capture of Drug Resistant-Influenza Virus by Live Imaging of Sialidase Activity” (PLoS ONE, 2016)

Biological target: T1, sialidase (neuraminidase, NA) of oseltamivir-sensitive 838 (Influenza A virus (A/Lima/070674913/2013(H1N1)), UniProt W8DXJ8)
T1 construct: full-length viral NA on whole virus grown in MDCK cells (or on infected MDCK cells); natural 275H
Assay: live-focus fluorescence imaging of sialidase activity, qualitative
Type: cell-based
Settings: substrate BTP3-Neu5Ac, 37 °C, 1 h, infected MDCK cells

`CCC(CC)[C@H](NC(C)=O)[C@@H]1[C@H](O)[C@@H](C(=O)O)C[C@H]1N=C(N)N` [peramivir] was tested, and the “inhibition at 10-1000 nM (qualitative)” value was “adding BTP3-Neu5Ac with clinical use-approved NAIs (oseltamivir, zanamivir, peramivir, and laninamivir)”.
